These results are taken from patent publication US11986471B2, “Compounds and methods of use” (Tango Therapeutics, Inc., priority 2018, dated 2024).

In assay [1] the target is T1, PRMT5 (Homo sapiens, UniProt O14744).
T1 construct: purchased Viva (custom protein)
In words: PRMT5 IC50 assay in the presence of SAM as cofactor. It counts as biochemical. The gist of the method:
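Cofactor-free, SAM and MTA formats; IC50 μM; Ki = IC50/1.5 for SAM, IC50/13.5 for MTA.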

The target in assay [2] is T1, PRMT5. The assay can be described thus: PRMT5 IC50 assay with no cofactor. It counts as biochemical. The method, boiled down: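 Three cofactor conditions are run: SAM-bound, MTA-bound and cofactor-free enzyme. IC50 is read from each; for the SAM and MTA arms it is divided by 1.5 and 13.5 respectively to give Ki.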
In assay [3] the target is T1, PRMT5. In words: PRMT5 IC50 assay in the presence of MTA as cofactor. The settings on record: for IC50: PRMT5, MTA as cofactor. It counts as biochemical. The method, boiled down: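 IC50 values were measured against human PRMT5 with SAM, with MTA, or with no cofactor. Ki was derived from IC50 as Ki=IC50/1.5 with SAM and Ki=IC50/13.5 with MTA, and the Ki(SAM)/Ki(MTA) ratio was then taken.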

The subject of the next assay is HAP1 MTAP-intact. The assay can be described thus: SDMA in-cell western assay, HAP1 MTAP-intact cell line. It counts as cell-based. The settings on record: Homo sapiens. The method, boiled down:
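Potency reflects cellular SDMA reduction, detected by in-cell western, in HAP1 cells with or without MTAP (endogenous expression versus null).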

The next assay deals with HAP1 MTAP-deleted. In words: SDMA in-cell western assay, HAP1 MTAP-deleted cell line. It counts as cell-based. The settings on record: for IC50: Homo sapiens, HAP1 MTAP-deleted cell line; for MTAP Intact/Deleted Ratio: IC50 ratio HAP1 MTAP-intact / HAP1 MTAP-deleted. The method, boiled down: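 These are IC50 values from an in-cell western measuring SDMA. The HAP1 cells used carry no MTAP, in contrast to the isogenic partner line with endogenous MTAP expression.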

Setting [4] is: ratio between Ki in the presence of SAM and Ki in the presence of MTA.
Setting [5] is: ratio between the Ki in the presence of SAM and the Ki in the presence of MTA.

T1 sequence (O14744 whole entry): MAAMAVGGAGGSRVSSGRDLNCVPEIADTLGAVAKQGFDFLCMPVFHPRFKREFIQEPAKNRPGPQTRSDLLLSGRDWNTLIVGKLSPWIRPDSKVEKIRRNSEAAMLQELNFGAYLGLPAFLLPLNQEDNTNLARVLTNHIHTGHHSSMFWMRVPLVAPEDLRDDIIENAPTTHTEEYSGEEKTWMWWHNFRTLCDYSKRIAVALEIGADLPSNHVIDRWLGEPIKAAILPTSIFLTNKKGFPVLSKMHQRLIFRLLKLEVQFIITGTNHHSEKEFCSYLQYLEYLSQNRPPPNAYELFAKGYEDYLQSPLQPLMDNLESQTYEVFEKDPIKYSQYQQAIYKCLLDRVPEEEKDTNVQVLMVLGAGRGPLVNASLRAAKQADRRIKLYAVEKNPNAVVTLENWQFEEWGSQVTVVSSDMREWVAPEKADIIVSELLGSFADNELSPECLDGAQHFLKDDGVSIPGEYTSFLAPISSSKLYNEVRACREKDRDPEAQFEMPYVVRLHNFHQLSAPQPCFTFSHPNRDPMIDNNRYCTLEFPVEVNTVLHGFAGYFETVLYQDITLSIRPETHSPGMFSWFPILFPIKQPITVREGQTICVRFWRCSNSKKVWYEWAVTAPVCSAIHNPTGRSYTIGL
T1 sequence (Q9BQA1 whole entry partner): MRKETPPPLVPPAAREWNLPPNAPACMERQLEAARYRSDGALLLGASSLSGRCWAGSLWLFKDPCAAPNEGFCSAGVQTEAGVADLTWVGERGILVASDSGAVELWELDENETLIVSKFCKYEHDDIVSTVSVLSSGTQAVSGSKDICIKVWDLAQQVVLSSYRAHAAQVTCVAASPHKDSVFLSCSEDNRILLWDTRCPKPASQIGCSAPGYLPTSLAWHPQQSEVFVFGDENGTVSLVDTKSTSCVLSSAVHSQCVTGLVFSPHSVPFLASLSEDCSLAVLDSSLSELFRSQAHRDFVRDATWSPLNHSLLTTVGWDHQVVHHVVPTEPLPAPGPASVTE

Broadly, the IC50 is the midpoint of a concentration-inhibition curve. On to `CC(=O)N1CCN(c2nc(NC3COC3)cc(C(=O)NC[C@H](O)CN3CCc4cc(OCc5ocnc5C)ccc4C3)n2)CC1` [Compound 401, 2-(4-acetylpiperazin-1-yl)-N-[(2S)-2-hydroxy-3-{6-[(4-methyl-E3-oxazol-5-yl)methoxy]-1,2,3,4-tetrahydroisoquinolin-2-yl}propyl]-6-[(oxetan-3-yl)amino]pyrimidine-4-carboxamide], for which the concentration for half-maximal inhibition (IC50) was 50 to 500 nM on PRMT5 [1]; 500 to 5000 nM on PRMT5 [2] (read-out: No Co-factor IC50); 50 to 500 nM on PRMT5 [3]; no less than 10000 nM in the assay on HAP1 MTAP-intact; 1000 to 10000 nM in the assay on HAP1 MTAP-deleted. For the same molecule, the “SAM/MTA Ratio” value on PRMT5 [3] (setting [4]) was “A (a Ki ratio greater than or equal to 10 fold between the Ki in the presence of SAM and the Ki in the presence of MTA)”. Further, the “MTAP Intact/Deleted Ratio” value in the assay with HAP1 MTAP-deleted was “B* (an IC50 ratio greater than or equal to 3 fold but lower than 10 fold between the IC50 in the HAP1 MTAP-intact cell line and the HAP1 MTAP-deleted cell line)”.

Consider `CC(=O)N1CCC(Nc2cc(C(=O)NC[C@H](O)CN3CCc4cc(OCc5cn[nH]c5)ccc4C3)ncn2)CC1` [Compound 201, 6-[(1-acetyl-4-piperidyl)amino]-N-[(2S)-2-hydroxy-3-[6-(1H-pyrazol-4-ylmethoxy)-3,4-dihydro-1H-isoquinolin-2-yl]propyl]pyrimidine-4-carboxamide], for which the IC50 on PRMT5 [1] was 50 to 500 nM; on PRMT5 [2] (read-out: No Co-factor IC50), 500 to 5000 nM; on PRMT5 [3], 50 to 500 nM; with HAP1 MTAP-intact, 1000 to 10000 nM; in the assay with HAP1 MTAP-deleted, less than 1000 nM. Besides, on PRMT5 [3] (setting [4]), the “SAM/MTA Ratio” value is “A (a Ki ratio greater than or equal to 10 fold between the Ki in the presence of SAM and the Ki in the presence of MTA)”. In addition, in the assay on HAP1 MTAP-deleted, the “MTAP Intact/Deleted Ratio” value is “C* (an IC50 ratio of less than 3 fold between the IC50 in the HAP1 MTAP-intact cell line and the HAP1 MTAP-deleted cell line)”.

On to `Cc1ncoc1COc1ccc2c(c1)CCN(C[C@@H](O)CNC(=O)c1cc(NC3COC3)nc(N3CCCCC3)n1)C2` [Compound 405, N-[(2S)-2-hydroxy-3-{6-[(4-methyl-1,3-oxazol-5-yl)methoxy]-1,2,3,4-tetrahydroisoquinolin-2-yl}propyl]-6-[(oxetan-3-yl)amino]-2-(piperidin-1-yl)pyrimidine-4-carboxamide], for which the IC50 at PRMT5 [1] is 50 to 500 nM; on PRMT5 [2] (read-out: No Co-factor IC50), 500 to 5000 nM; at PRMT5 [3], 50 to 500 nM; in the assay on HAP1 MTAP-intact, less than 1000 nM; in the assay with HAP1 MTAP-deleted, less than 1000 nM. On PRMT5 [3] (setting [4]), the “SAM/MTA Ratio” value was “A (a Ki ratio greater than or equal to 10 fold between the Ki in the presence of SAM and the Ki in the presence of MTA)”. Further, in the assay on HAP1 MTAP-deleted, the “MTAP Intact/Deleted Ratio” value was “B* (an IC50 ratio greater than or equal to 3 fold but lower than 10 fold between the IC50 in the HAP1 MTAP-intact cell line and the HAP1 MTAP-deleted cell line)”.

Take `O=C(NC[C@H](O)CN1CCc2nc(OCc3cnco3)ccc2C1)c1ccnc(NC2CCC2)c1` [Compound 413, 2-(cyclobutylamino)-N-[(2S)-2-hydroxy-3-[2-(oxazol-5-ylmethoxy)-7,8-dihydro-5H-1,6-naphthyridin-6-yl]propyl]pyridine-4-carboxamide]: the IC50 on PRMT5 [1] was 500 to 5000 nM; at PRMT5 [2] (read-out: No Co-factor IC50), no less than 5000 nM; at PRMT5 [3], 500 to 5000 nM; with HAP1 MTAP-intact, no less than 10000 nM; in the assay on HAP1 MTAP-deleted it was no less than 10000 nM. Further, on PRMT5 [3] (setting [4]), the “SAM/MTA Ratio” value was “A (a Ki ratio greater than or equal to 10 fold between the Ki in the presence of SAM and the Ki in the presence of MTA)”. Moreover, the “MTAP Intact/Deleted Ratio” value in the assay on HAP1 MTAP-deleted is “C* (an IC50 ratio of less than 3 fold between the IC50 in the HAP1 MTAP-intact cell line and the HAP1 MTAP-deleted cell line)”.

On to `O=C(NC[C@H](O)CN1CCc2c(ccc(OCc3cnco3)c2Cl)C1)c1cc(NC2CCC2)ncc1F` [Compound 340, (S)—N-(3-(5-chloro-6-(oxazol-5-ylmethoxy)-3N-dihydroisoquinolin-2(1H)-yl)-2-hydroxypropyl)-2-(cyclobutylamino)-5-fluoroisonicotinamide], for which the IC50 was 500 to 5000 nM at PRMT5 [1]; no less than 5000 nM on PRMT5 [2] (read-out: No Co-factor IC50); 50 to 500 nM on PRMT5 [3]; no less than 10000 nM in the assay with HAP1 MTAP-intact; no less than 10000 nM with HAP1 MTAP-deleted. Also, at PRMT5 [3] (setting [4]), the “SAM/MTA Ratio” value was “A (a Ki ratio greater than or equal to 10 fold between the Ki in the presence of SAM and the Ki in the presence of MTA)”. Also, the “MTAP Intact/Deleted Ratio” value in the assay with HAP1 MTAP-deleted was “C* (an IC50 ratio of less than 3 fold between the IC50 in the HAP1 MTAP-intact cell line and the HAP1 MTAP-deleted cell line)”.

Regarding `CC(=O)N1CCC(Nc2cc(C(=O)NC[C@H](O)CN3CCc4cc(OCc5cnco5)ccc4C3)ncn2)CC1` [Compound 135, 6-[(1-acetyl-4-piperidyl)amino]-N-[(2S)-2-hydroxy-3-[6-(oxazol-5-ylmethoxy)-3,4-dihydro-1H-isoquinolin-2-yl]propyl]pyrimidine-4-carboxamide], the IC50 is 50 to 500 nM on PRMT5 [1]; no less than 5000 nM on PRMT5 [2] (read-out: No Co-factor IC50); 50 to 500 nM on PRMT5 [3]; 1000 to 10000 nM with HAP1 MTAP-intact; 1000 to 10000 nM in the assay on HAP1 MTAP-deleted. Further, the “SAM/MTA Ratio” value at PRMT5 [3] (setting [4]) was “A (a Ki ratio greater than or equal to 10 fold between the Ki in the presence of SAM and the Ki in the presence of MTA)”. The “MTAP Intact/Deleted Ratio” value in the assay with HAP1 MTAP-deleted is “C* (an IC50 ratio of less than 3 fold between the IC50 in the HAP1 MTAP-intact cell line and the HAP1 MTAP-deleted cell line)”.

For the molecule `CC(=O)N1CCC(Nc2cccc(C(=O)NC[C@H](O)CN3CCc4cc(OCc5cnco5)ccc4C3)c2)CC1` [Compound 527], the IC50 is 50 to 500 nM at PRMT5 [1]; 500 to 5000 nM against PRMT5 [2]; 50 to 500 nM at PRMT5 [3]; no less than 10000 nM in the assay with HAP1 MTAP-intact; 1000 to 10000 nM in the assay on HAP1 MTAP-deleted. Besides, on PRMT5 [3] (setting [5]), the “SAM/MTA Ratio” value was “A (a Ki ratio greater than or equal to 10 fold between the Ki in the presence of SAM and the Ki in the presence of MTA)”. Also, the “MTAP Intact/Deleted Ratio” value in the assay with HAP1 MTAP-deleted is “B* (an IC50 ratio greater than or equal to 3 fold but lower than 10 fold between the IC50 in the HAP1 MTAP-intact cell line and the HAP1 MTAP-deleted cell line)”.

As for `O=C(NC[C@H](O)CN1CCc2c(ccc(OCc3cnco3)c2Cl)C1)c1cccc(NC2CCC2)c1` [Compound 335, (S)—N-(3-(5-chloro-6-(oxazol-5-ylmethoxy)-3,4-dihydroisoquinolin-2(1H)-yl)-2-hydroxypropyl)-3-(cyclobutylamino)benzamide], the IC50 at PRMT5 [1] is 500 to 5000 nM; at PRMT5 [2] (read-out: No Co-factor IC50), no less than 5000 nM; at PRMT5 [3], 500 to 5000 nM; in the assay on HAP1 MTAP-intact, no less than 10000 nM; with HAP1 MTAP-deleted, no less than 10000 nM. Moreover, on PRMT5 [3] (setting [4]), the “SAM/MTA Ratio” value was “A (a Ki ratio greater than or equal to 10 fold between the Ki in the presence of SAM and the Ki in the presence of MTA)”. In addition, in the assay with HAP1 MTAP-deleted, the “MTAP Intact/Deleted Ratio” value is “C* (an IC50 ratio of less than 3 fold between the IC50 in the HAP1 MTAP-intact cell line and the HAP1 MTAP-deleted cell line)”.

With `Cc1c(OCc2cnco2)ccc2c1CCN(C[C@@H](O)CNC(=O)c1ccnc(NC3CCN(C(=O)C(C)C)CC3)c1)C2` [Compound 427], the IC50 at PRMT5 [1] was 50 to 500 nM; at PRMT5 [2], 500 to 5000 nM; on PRMT5 [3], 50 to 500 nM; in the assay on HAP1 MTAP-intact, no less than 10000 nM; in the assay on HAP1 MTAP-deleted it was 1000 to 10000 nM. In addition, the “SAM/MTA Ratio” value at PRMT5 [3] (setting [5]) is “A (a Ki ratio greater than or equal to 10 fold between the Ki in the presence of SAM and the Ki in the presence of MTA)”. For the same molecule, the “MTAP Intact/Deleted Ratio” value with HAP1 MTAP-deleted is “B* (an IC50 ratio greater than or equal to 3 fold but lower than 10 fold between the IC50 in the HAP1 MTAP-intact cell line and the HAP1 MTAP-deleted cell line)”.

Turning to `O=C(NC[C@H](O)CN1CCc2cc(OCc3cnco3)ccc2C1)c1cc(NC2COC2)nc(N2CCCCC2)n1` [Compound 325, (S)—N-(2-hydroxy-3-(6-(oxazol-5-ylmethoxy)-3,4-dihydroisoquinolin-2(1H)-yl)propyl)-6-(oxetan-3-ylamino)-2-(piperidin-1-yl)pyrimidine-4-carboxamide], the 50% inhibitory concentration (IC50) on PRMT5 [1] was 50 to 500 nM; at PRMT5 [2] (read-out: No Co-factor IC50), 500 to 5000 nM; on PRMT5 [3], 50 to 500 nM; in the assay with HAP1 MTAP-intact, 1000 to 10000 nM; with HAP1 MTAP-deleted, less than 1000 nM. On PRMT5 [3] (setting [4]), the “SAM/MTA Ratio” value is “A (a Ki ratio greater than or equal to 10 fold between the Ki in the presence of SAM and the Ki in the presence of MTA)”. Besides, in the assay on HAP1 MTAP-deleted, the “MTAP Intact/Deleted Ratio” value was “C* (an IC50 ratio of less than 3 fold between the IC50 in the HAP1 MTAP-intact cell line and the HAP1 MTAP-deleted cell line)”.

Consider `CCN(C)c1nc(NC2COC2)cc(C(=O)NC[C@H](O)CN2CCc3cc(OCc4ocnc4C)ccc3C2)n1` [Compound 457, 2-[ethyl(methyl)amino]-N-[(2S)-2-hydroxy-3-{6-[(4-methyl-1,3-oxazol-5-yl)methoxy]-1,2,3,4-tetrahydroisoquinolin-2-yl}propyl]-6-[(oxetan-3-yl)amino]pyrimidine-4-carboxamide], for which the concentration for half-maximal inhibition (IC50) was 50 to 500 nM on PRMT5 [1]; 500 to 5000 nM at PRMT5 [2]; 50 to 500 nM on PRMT5 [3]; less than 1000 nM in the assay with HAP1 MTAP-intact; less than 1000 nM in the assay with HAP1 MTAP-deleted. Moreover, the “SAM/MTA Ratio” value on PRMT5 [3] (setting [5]) was “A (a Ki ratio greater than or equal to 10 fold between the Ki in the presence of SAM and the Ki in the presence of MTA)”. In the assay with HAP1 MTAP-deleted, the “MTAP Intact/Deleted Ratio” value is “C* (an IC50 ratio of less than 3 fold between the IC50 in the HAP1 MTAP-intact cell line and the HAP1 MTAP-deleted cell line)”.
